Assay results published in the supplement of paper PMC6045584.
± gives the standard deviation of the averaged measurements.

The test systems below were run with Cc1ccc(-c2cc(C(F)(F)F)nn2-c2ccc(S(N)(=O)=O)cc2)cc1 [CELECOXIB] (assay: surviving fraction relative to DMSO-only wells; higher = less growth inhibition). Settings: 50 nM; exposure time: 5 days.
Outline: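 Inhibitors were tested at 0.5, 1, 5, 10, 50, 100, 500 and 1000 nM, applied continuously for five days beginning 24 hours after log-phase tumour cells were seeded at 250–500 per well in 384-well plates. CellTiter-Glo luminescence served as the viability measure, expressed as surviving fraction against the median of DMSO-only wells. Each line, screened three times, was kept only with replicate Pearson r >0.7 and median Z' >0.3.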

93VU HEADNECK and 143B BONE are within error of each other in surviving fraction: 1.03 ± 0.083 for the first, 1.08 ± 0.052 for the second.

A549 LUNG and ASKA SYNOVIAL are within error of each other in surviving fraction: 1.08 ± 0.044 for the first, 1.19 ± 0.12 for the second.

BT20 BREAST and BT549 BREAST are within error of each other in surviving fraction: 1.11 ± 0.072 for the first, 1.15 ± 0.068 for the second.

Compared with CADOES1 SOFT TISSUE, CAL51 BREAST is higher in surviving fraction: 0.973 ± 0.043 for the first, 1.07 ± 0.027 for the second.

CAL72 BONE and CAL120 BREAST are within error of each other in surviving fraction: 1.06 ± 0.12 for the first, 1 ± 0.04 for the second.

First: CASKI CERVIX
Second: CCK81 LARGE INTESTINE
The surviving fraction of the first is higher: 1.01 ± 0.027 for the first, 0.774 ± 0.094 for the second.

Compared with CHLA90 AUTONOMIC GANGLIA, CME SYNOVIAL is higher in surviving fraction: 1.03 ± 0.088 for the first, 1.47 ± 0.23 for the second.

Compared with COLO320DM LARGE INTESTINE, DU4475 BREAST is lower in surviving fraction: 1.14 ± 0.043 for the first, 0.876 ± 0.051 for the second.

G292 BONE and H23 LUNG are within error of each other in surviving fraction: 1.04 ± 0.02 for the first, 1.07 ± 0.05 for the second.

Going from HCC38 BREAST to HCC78 LUNG, the surviving fraction falls from 1.25 ± 0.1 to 0.886 ± 0.14.

HCC202 BREAST and HCC1806 BREAST are within error of each other in surviving fraction: 1.06 ± 0.27 for the first, 1.11 ± 0.039 for the second.

HMLE3 BREAST and HMT3552 BREAST are within error of each other in surviving fraction: 1.04 ± 0.15 for the first, 1.16 ± 0.019 for the second.

HOS BONE and HOSMNG BONE are within error of each other in surviving fraction: 1.06 ± 0.028 for the first, 1.01 ± 0.059 for the second.

HS57T BREAST and HSSYII SYNOVIAL are within error of each other in surviving fraction: 1.04 ± 0.06 for the first, 1.02 ± 0.046 for the second.

HT1080 SOFT TISSUE and HU09 BONE are within error of each other in surviving fraction: 0.995 ± 0.02 for the first, 1.04 ± 0.05 for the second.

HUO3N1 BONE showed a surviving fraction of 1.12 ± 0.017.

Same assay, conditions: 100 nM; exposure time: 5 days

22RV1 PROSTATE and 93VU HEADNECK are within error of each other in surviving fraction: 1.01 ± 0.16 for the first, 1.08 ± 0.15 for the second.

143B BONE and A549 LUNG are within error of each other in surviving fraction: 1.14 ± 0.072 for the first, 1.08 ± 0.045 for the second.

ASKA SYNOVIAL and BT20 BREAST are within error of each other in surviving fraction: 1.21 ± 0.064 for the first, 1.22 ± 0.061 for the second.

Going from BT549 BREAST to CADOES1 SOFT TISSUE, the surviving fraction falls from 1.28 ± 0.067 to 0.942 ± 0.024.

CAL51 BREAST and CAL72 BONE are within error of each other in surviving fraction: 1.11 ± 0.03 for the first, 1.08 ± 0.17 for the second.

CAL120 BREAST and CASKI CERVIX are within error of each other in surviving fraction: 1.01 ± 0.032 for the first, 1 ± 0.051 for the second.

Going from CCK81 LARGE INTESTINE to CHLA90 AUTONOMIC GANGLIA, the surviving fraction rises from 0.732 ± 0.099 to 1 ± 0.15.

First: CME SYNOVIAL
Second: COLO320DM LARGE INTESTINE
The surviving fraction of the first is higher: 1.41 ± 0.16 for the first, 1.15 ± 0.025 for the second.

DU4475 BREAST and G292 BONE are within error of each other in surviving fraction: 0.892 ± 0.12 for the first, 1.02 ± 0.047 for the second.

H23 LUNG and HCC38 BREAST are within error of each other in surviving fraction: 1.18 ± 0.067 for the first, 1.17 ± 0.0085 for the second.

HCC78 LUNG and HCC202 BREAST are within error of each other in surviving fraction: 1.05 ± 0.082 for the first, 1.13 ± 0.18 for the second.

HCC1806 BREAST and HMLE3 BREAST are within error of each other in surviving fraction: 1.25 ± 0.09 for the first, 1.09 ± 0.076 for the second.

Compared with HMT3552 BREAST, HOS BONE is lower in surviving fraction: 1.18 ± 0.062 for the first, 1.08 ± 0.031 for the second.

HOSMNG BONE and HS57T BREAST are within error of each other in surviving fraction: 1.08 ± 0.098 for the first, 1.09 ± 0.04 for the second.

First: HSSYII SYNOVIAL
Second: HT1080 SOFT TISSUE
The surviving fraction of the first is higher: 1.039 ± 0.0068 for the first, 1.011 ± 0.008 for the second.

For HUO3N1 BONE, the surviving fraction was 1.02 ± 0.039.

Same assay, conditions: 500 nM; exposure time: 5 days

22RV1 PROSTATE and 93VU HEADNECK are within error of each other in surviving fraction: 1.02 ± 0.12 for the first, 1.08 ± 0.052 for the second.

143B BONE and A549 LUNG are within error of each other in surviving fraction: 1.08 ± 0.05 for the first, 1.11 ± 0.057 for the second.

ASKA SYNOVIAL and BT20 BREAST are within error of each other in surviving fraction: 1.15 ± 0.073 for the first, 1.23 ± 0.059 for the second.

First: BT549 BREAST
Second: CADOES1 SOFT TISSUE
The surviving fraction of the first is higher: 1.18 ± 0.03 for the first, 0.888 ± 0.045 for the second.

CAL51 BREAST and CAL72 BONE are the same in surviving fraction: 1.07 ± 0.021 for the first, 1.07 ± 0.13 for the second.

CAL120 BREAST and CASKI CERVIX are within error of each other in surviving fraction: 0.995 ± 0.085 for the first, 0.933 ± 0.034 for the second.

First: CCK81 LARGE INTESTINE
Second: CHLA90 AUTONOMIC GANGLIA
The surviving fraction of the first is lower: 0.735 ± 0.089 for the first, 0.999 ± 0.058 for the second.

Compared with CME SYNOVIAL, COLO320DM LARGE INTESTINE is lower in surviving fraction: 1.38 ± 0.13 for the first, 1.15 ± 0.074 for the second.

DU4475 BREAST and G292 BONE are within error of each other in surviving fraction: 0.973 ± 0.18 for the first, 0.996 ± 0.045 for the second.

H23 LUNG and HCC38 BREAST are within error of each other in surviving fraction: 1.18 ± 0.015 for the first, 1.09 ± 0.095 for the second.

HCC78 LUNG and HCC202 BREAST are within error of each other in surviving fraction: 0.973 ± 0.09 for the first, 1.36 ± 0.39 for the second.

HCC1806 BREAST and HMLE3 BREAST are within error of each other in surviving fraction: 1.09 ± 0.059 for the first, 1.1 ± 0.061 for the second.

Compared with HMT3552 BREAST, HOS BONE is lower in surviving fraction: 1.19 ± 0.078 for the first, 1.06 ± 0.022 for the second.

HOSMNG BONE and HS57T BREAST are within error of each other in surviving fraction: 1.05 ± 0.13 for the first, 1.02 ± 0.055 for the second.

HSSYII SYNOVIAL and HT1080 SOFT TISSUE are within error of each other in surviving fraction: 1.01 ± 0.066 for the first, 1.02 ± 0.012 for the second.

HU09 BONE and HUO3N1 BONE are within error of each other in surviving fraction: 0.952 ± 0.18 for the first, 1 ± 0.023 for the second.

Same assay, conditions: 1000 nM; exposure time: 5 days

22RV1 PROSTATE and 93VU HEADNECK are within error of each other in surviving fraction: 1.06 ± 0.035 for the first, 1.07 ± 0.086 for the second.

143B BONE and A549 LUNG are within error of each other in surviving fraction: 1.08 ± 0.033 for the first, 1.05 ± 0.044 for the second.

ASKA SYNOVIAL and BT20 BREAST are within error of each other in surviving fraction: 1.12 ± 0.039 for the first, 1.07 ± 0.047 for the second.

Compared with BT549 BREAST, CADOES1 SOFT TISSUE is lower in surviving fraction: 1.15 ± 0.058 for the first, 0.827 ± 0.097 for the second.

CAL51 BREAST and CAL72 BONE are within error of each other in surviving fraction: 1.05 ± 0.064 for the first, 1.09 ± 0.12 for the second.

CAL120 BREAST and CASKI CERVIX are within error of each other in surviving fraction: 1 ± 0.011 for the first, 0.972 ± 0.11 for the second.

Compared with CCK81 LARGE INTESTINE, CHLA90 AUTONOMIC GANGLIA is higher in surviving fraction: 0.813 ± 0.077 for the first, 1.08 ± 0.026 for the second.

Going from CME SYNOVIAL to COLO320DM LARGE INTESTINE, the surviving fraction falls from 1.34 ± 0.076 to 1.13 ± 0.031.

Compared with DU4475 BREAST, G292 BONE is higher in surviving fraction: 0.872 ± 0.015 for the first, 0.964 ± 0.076 for the second.

H23 LUNG and HCC38 BREAST are within error of each other in surviving fraction: 1.16 ± 0.074 for the first, 1.15 ± 0.12 for the second.

First: HCC78 LUNG
Second: HCC202 BREAST
The surviving fraction of the first is lower: 0.801 ± 0.028 for the first, 1.12 ± 0.16 for the second.

HCC1806 BREAST and HMLE3 BREAST are within error of each other in surviving fraction: 1.08 ± 0.077 for the first, 1.03 ± 0.17 for the second.

Compared with HMT3552 BREAST, HOS BONE is lower in surviving fraction: 1.27 ± 0.041 for the first, 1.024 ± 0.007 for the second.

First: HOSMNG BONE
Second: HS57T BREAST
The surviving fraction of the first is higher: 1.02 ± 0.072 for the first, 0.867 ± 0.021 for the second.

HSSYII SYNOVIAL and HT1080 SOFT TISSUE are within error of each other in surviving fraction: 1.04 ± 0.036 for the first, 1 ± 0.021 for the second.

Compared with HU09 BONE, HUO3N1 BONE is higher in surviving fraction: 0.846 ± 0.02 for the first, 0.974 ± 0.036 for the second.
